The record followed here is patent US20260274810A1, “NOVEL MITOFUSIN INHIBITORS” (ALBERT EINSTEIN COLLEGE OF MEDICINE, priority 2023, published 2026).

One assay deals with MFN1 and MFN2. Put plainly: MFN1 and MFN2 gene expression and protein levels. The class given is cell-based. As for the experimental part: Western blot. Western blots were performed from whole cell lysates (WCL) prepared in lysis buffer containing 50 mM Tris-HCl pH 7.5, 1% Triton X-100, 150 mM NaCl, 5 mM MgCl2, 1 mM EGTA and 10% glycerol in the presence of protease inhibitor cocktail (Roche).
Analysis of mitochondrial biogenesis-related genes by q-PCR. Total RNA was extracted by using RNeasy Mini Kit (Qiagen) followed by cDNA synthesis using the SuperScript IV VILO Master Mix (Thermo Scientific), both performed according to the manufacturer's protocol. q-PCR was performed using the following primers: […]
For the q-PCR reaction, Power SYBR Green master mix (Thermo Scientific) was used according to the manufacturer's instructions. Briefly, each reaction consisted of 10 ng cDNA, 5 μL Power SYBR Green master mix, 200 nM primers (forward and reverse), and RNase-free water up to 10 μL. q-PCR was performed on the ViiA 7 Real-Time PCR System (Thermo Scientific) with the following cycle parameter: 95° C. for 10 min, 40 cycles of 95° C. for 15 s, and 60° C. for 1 min. q-PCR products were analyzed by melting curves for unspecific products or primer dimer formation.

In another assay the test system is cells. Put plainly: Cell death assay (Annexin V / PI). The class given is cell-based. As for the experimental part:
Cell death assay. Cells (2×10^5 cells/well) were seeded in a 6-well plate and treated with the indicated drugs for 6 hours. Cells were dissociated using Accutase (Thermo Fisher; Cat. #00-4555-56) in order to avoid accidental exposure of phosphatidylserine on the outer plasma membrane. Cell death was evaluated with Dead Cell Apoptosis Kit with Annexin V Alexa Fluor™ 488 & Propidium Iodide (Thermo Fisher; Cat. #V13241) according to manufacturer's protocol. Data was acquired by BD LSRII flow cytometer system using BD FACSDiva software. Data was analyzed by FlowJo (BD).

Take `Cc1cccc(NC(C)c2cc(Cl)ccc2O)c1C` (stereo not shown) [MFI8]: the “MFN1 and MFN2 gene expression and protein levels” value with MFN1 and MFN2 is “neither MASM7 nor MFI8 altered”. Further, the “sensitization to BV6-induced cell death” value is “potentiated the capacity of BV6 to induce cell death” with cells (combined with BV6); “abolished the capacity of MFI8 to sensitize cells to BV6 treatment” in the assay with cells (deletion of MFN1/2 and APAF). Moreover, in the assay on cells (upon caspase 3/7 activation), the “percentage of dead cells” value is recorded as “did not increase the percentage of dead cells”.
